Consider 23 compounds from ChEMBL document CHEMBL1129314, “Synthesis of novel Se-substituted selenocysteine derivatives as potential kidney selective prodrugs of biologically active selenol compounds: evaluation of kinetics of beta-elimination reactions in rat renal cytosol” (J Med Chem, 1996).

Assay [1] addresses Kynurenine--oxoglutarate transaminase 1 (Rattus norvegicus) (UniProt Q08415). The assay is described as follows: Ratio of Vmax and Km for elimination of conjugates by rat renal cytosol.
Assay [2] shares this target. The assay is described as follows: Specific activity against beta-elimination reaction by rat renal cytosolic beta-lyase after incubation with 0.2 mg of protein/mL for 10 min at 37 degree C using 1 mM substrate conc.

Chain of Kynurenine--oxoglutarate transaminase 1 (Rattus norvegicus) (Q08415 whole entry, looked up): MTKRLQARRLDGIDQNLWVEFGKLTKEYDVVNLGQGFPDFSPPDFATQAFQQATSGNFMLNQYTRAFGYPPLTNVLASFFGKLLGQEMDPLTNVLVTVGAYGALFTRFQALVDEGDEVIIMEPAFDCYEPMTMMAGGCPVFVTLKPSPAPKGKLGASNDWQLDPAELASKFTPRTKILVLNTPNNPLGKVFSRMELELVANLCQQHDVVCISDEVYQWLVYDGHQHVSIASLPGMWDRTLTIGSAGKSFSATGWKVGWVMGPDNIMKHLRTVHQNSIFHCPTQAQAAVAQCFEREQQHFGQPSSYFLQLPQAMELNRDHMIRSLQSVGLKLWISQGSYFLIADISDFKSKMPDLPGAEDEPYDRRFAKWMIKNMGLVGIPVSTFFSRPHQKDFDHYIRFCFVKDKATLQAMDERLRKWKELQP

Take `N[C@@H](C[Se]Cc1ccc(Cl)cc1)C(=O)O`: in assay [1], the Vmax / Km (nM min-1 mg-1 mM-1) worked out at 68.4. In assay [2], this compound came in with a Specific activity (nM min-1 mg-1) of 11.6. In turn, `N[C@@H](CSCc1ccccc1)C(=O)O` came in with a Specific activity (nM min-1 mg-1) in assay [2] of 0.2.

As for `COc1ccc(C[Se]C[C@H](N)C(=O)O)cc1`, the Vmax / Km (nM min-1 mg-1 mM-1) in assay [1] stood at 44.9. Moreover, in assay [2], the Specific activity (nM min-1 mg-1) stood at 10.2. The matching figures for `N[C@@H](C[Se]c1ccc(Cl)cc1)C(=O)O`: 16.7 and 5.2. On to `Cc1ccc(C[Se]C[C@H](N)C(=O)O)cc1`, for which the Specific activity (nM min-1 mg-1) in assay [2] is 4.9. `N[C@@H](CSc1ccccc1)C(=O)O`: the Specific activity (nM min-1 mg-1) in assay [2] amounted to 0.2. On to `CCSC[C@H](N)C(=O)O`, for which the Specific activity (nM min-1 mg-1) in assay [2] was determined as 0.1. `COc1ccc(CSC[C@H](N)C(=O)O)cc1` showed a Specific activity (nM min-1 mg-1) in assay [2] of 0.1.

Consider `CCC[Se]C[C@H](N)C(=O)O`, for which the Specific activity (nM min-1 mg-1) in assay [2] worked out at 3.3. `CCCC[Se]C[C@H](N)C(=O)O`: the Vmax / Km (nM min-1 mg-1 mM-1) in assay [1] was 1.8. The Specific activity (nM min-1 mg-1) in assay [2] was 0.9.

For the compound `N[C@@H](C[Se]Cc1ccc(Cl)c(Cl)c1)C(=O)O`, the Vmax / Km (nM min-1 mg-1 mM-1) in assay [1] worked out at 49. Besides, the Specific activity (nM min-1 mg-1) in assay [2] is 12.3. Regarding `C[Se]C[C@H](N)C(=O)O`, the Specific activity (nM min-1 mg-1) in assay [2] amounted to 4. Regarding `COc1ccc([Se]C[C@H](N)C(=O)O)cc1`, in assay [1], the Vmax / Km (nM min-1 mg-1 mM-1) amounted to 14. The Specific activity (nM min-1 mg-1) in assay [2] came to 4.3. Taken in the same sequence, the figures for `CCC[Se]CC(N)C(=O)O` (single isomer, unassigned) were 25.7 and 8. Take `CC(C)[Se]C[C@H](N)C(=O)O`: the Vmax / Km (nM min-1 mg-1 mM-1) in assay [1] stood at 66.9. The same compound displayed a Specific activity (nM min-1 mg-1) in assay [2] of 14.9.

On to `Cc1ccc([Se]CC(N)C(=O)O)cc1` (single isomer, unassigned), for which the Vmax / Km (nM min-1 mg-1 mM-1) in assay [1] was 16.7. In assay [2], this compound had a Specific activity (nM min-1 mg-1) of 3.8.

`Cc1ccc(C[Se]CC(N)C(=O)O)cc1` (single isomer, unassigned): in assay [1], the Vmax / Km (nM min-1 mg-1 mM-1) turned out to be 70.2. The compound further came in with a Specific activity (nM min-1 mg-1) in assay [2] of 13.1. In the case of `Cc1ccc(CSC[C@H](N)C(=O)O)cc1`, the Specific activity (nM min-1 mg-1) in assay [2] is 0.3.

With `CC[Se]C[C@H](N)C(=O)O`, the Vmax / Km (nM min-1 mg-1 mM-1) in assay [1] came out at 21.8. In assay [2], this compound gave a Specific activity (nM min-1 mg-1) of 11. The matching figures for `N[C@@H](C[Se]c1ccccc1)C(=O)O`: 44.2 and 13.8. The matching figures for `C[Se]CC(N)C(=O)O` (single isomer, unassigned): 13.2 and 7.1. The matching figures for `N[C@@H](C[Se]Cc1ccccc1)C(=O)O`: 70 and 9.8. `Cc1ccc([Se]C[C@H](N)C(=O)O)cc1` returned a Specific activity (nM min-1 mg-1) in assay [2] of 0.1.
